The values below come from patent publication US11590092B2, “Skin probiotic” (The Regents of the University of California, priority 2014, dated 2023).

SMILES strings stand for the structures. Entries after “also recorded” stand apart in the source; their conditions may differ.

For assay [1], the system named is USA300. The assay is described as follows: In vivo skin wound infection with USA300. Conditions: for USA300 colonization / growth in the skin lesions: vs controls. Set-up: species or system ICR mice. The method, then: ICR mice (2-3-month-old female) were anesthetized by isoflurane. In each experiment, there were five mice per group. A wound 5 mm in length was made on the dorsal skin after shaving with electrical clippers. Once the skin wound was created, 5 μl of propionic acid (100 mM), PBS (pH 7.1) or PBS (pH 3.5) was applied topically to the wounded areas. The wounds were left uncovered throughout the experimental period. For bacterial infection, USA300 (2×10^6 CFU in PBS) was applied topically to the wounded areas 10 min after application of propionic acid or PBS. For the measurement of the extent of wound closure, a transparent parafilm was put on the top of the wounded skin. The wound area was marked on the parafilm by drawing an area which covered the whole skin wound. The lesion size was measured daily for 8 days was calculated using the ImageJ software [National Institutes of Health (NIH), Bethesda, Md., USA] and expressed as mm^2. Student's t-test was used to determine the significance of the differences between groups of the PBS (pH 7.1)- and propionic acid-treated mice as well as the PBS (pH 7.1)- and PBS (pH 3.5)-treated mice. Data represent the mean±SD from three independent experiments. All experiments using mice were conducted in a Biosafety Level 2 (BSL-2) facility and with accordance to institutional guidelines for animal experiments.
The USA300-infected skins treated with propionic acid and its controls were cross-sectioned, stained with hematoxylin and eosin (H&E) (Sigma, St. Louis, Mo.), and viewed on a Bx51 research microscope (Olympus, Melville, N.Y., USA). To determine the bacterial number in infected skin, the whole area of infected skin was excised 72 h after bacterial application. The excised skin was homogenized in 200 μl of sterile PBS with a hand tissue grinder. Bacterial CFUs in the skin were enumerated by plating serial dilutions (1:10^1-1:10^6) of the homogenate on a TSB agar plate. The plate was incubated for 24 h at 37° C. to count colonies.
ICR mice (2-3 month-old females; Harlan Labs, Placentia, Calif., USA) were anesthetized by isoflurane. A 5 mm wounds were made on the dorsal skin following shaving with electrical clippers. Following skin wounding, 5 μl of filter sterilized media obtained by incubating P. acnes (10^5 CFU/ml in 10 ml) with/without glycerol for 17 days or 5 μl of media with glycerol (control) were applied and to the wounded areas. To determine if propionic acid can prevent or mitigate the MRSA infection, 5 μl of 100 mM propionic acid was applied to the wounded areas. Application of PBS/pH (pH 3.5, corresponding to pH for 100 mM propionic acid) or PBS (pH 7.1) to the wounded areas served as controls. The wounds were left uncovered throughout the experimental period. USA300 (2×10^6 CFU in 5 μl PBS) was then applied to the wounds 10 min after application of various media, propionic acid or PBS controls. To measure the extent of wound closure, a transparent parafilm was placed over the wounded skin and the area was marked by outlining the area of the wound. The lesion size (mm^2) was measured daily for 8 days then calculated with ImageJ software (NIH, Bethesda, Md., USA). Five mice per group per experiments were used. A Student's t-test was used to determine the significance of the differences between groups. Data represent the mean±SD from three independent experiments. All experiments using mice were conducted in a biosafety level 2 (BSL-2) facility and in accordance with institutional guidelines for animal experiments. To determine the bacterial counts in infected skin, the infected skin was excised 72 h following bacterial application. The excised skin was weighted and homogenized in 200 μl of sterile PBS with a tissue grinder. Bacterial CFUs in the skin were enumerated by plating serial dilutions (1:10^1-1:10^6) of the homogenate on a TSB agar plate. The plate was incubated for 24 h at 37° C. to count colonies. […]

In assay [2] the test system is USA300. Nature of the assay: Measurement of intracellular pH of USA300 (cFSE probe). The class given is cell-based, Staphylococcus aureus. The note with it: 25 mM propionic acid, vs PBS. The method, then:
Measurement of intracellular pH. […] A drop in relative fluorescence indicated the decrease in intracellular pH. […] The fluorescence of the bacteria-free supernatant was measured and deducted from values for the treated suspensions.
Fluorescence was measured for 5 min every min using an excitation wavelength of 490 nm and an emission wavelength of 520 nm. A reduction in relative fluorescence reflected a decrease in intracellular pH. Fluorescence of bacteria-free supernatant obtained by centrifugation at 5,000×g for 5 min after the 5-min assay was measured to correct for background fluorescence. Calibration curves were obtained by incubation of untreated, cFSE-loaded bacteria in buffer containing 50 mM glycine, 50 mM citric acid, 50 mM Na2HPO4.2H2O and 50 mM KCl adjusted to various pH values from 4-10. 1 μM valinomycin and nigericin (Sigma) were added to equilibrate the intracellular and extracellular pH.

A further assay has as its system C. albicans. The assay is described as follows: Minimal fungicidal concentration test against C. albicans. Format: cell-based, Candida albicans. The note with it: MBC/MFC test. The method, then:
(§1) To determine the minimal bactericidal concentration (MBC) and minimal fungicidal concentration (MFC) of propionic acid, microorganisms (10^6 colony forming units (cfu)/ml) were incubated overnight in media with propionic acid (1.25-2,000 mM) in a 96-well microplate (100 μl per well). The control only received PBS. After incubation, the microorganisms were diluted 1:10-1:10^6 into PBS. The dilutions (5 μl) were spotted onto agar media to count cfu; MBC/MFC were determined at 99.9% killing level. To determine the effect of pH on growth of S. aureus USA300, the bacterium was incubated in TSB at pH 5.8 and 6.8, and TSB with 25 mM propionic acid at pH 5.8 and 6.8 (buffered with 4-(2-hydroxyethyl)-1-piperazineethanesulfonic acid (HEPES)) in a 96-well microplate overnight before spotting onto agar plates.

The next assay relates to E. coli. The assay is described as follows: Minimal bactericidal concentration test against E. coli. Conditions: MBC test. The class given is cell-based, Escherichia coli. The protocol: as §1

As for `CCC(=O)O` [propionic acid], the “sizes of USA300-infected skin lesions” value with USA300 [1] (topical 100 mM propionic acid 10 min before USA300 (2×10^6 CFU), vs PBS) is reported as “considerably decreased; also recorded: significantly reduced”. Also, the “bacterial numbers in USA300-infected lesions” value with USA300 [1] (topical 100 mM propionic acid, three days after bacterial application (FIG. 10F)) is recorded as 6.9±0.7×10^7 CFU. The “bacterial numbers in USA300-infected lesions” value in the assay with USA300 [1] (topical 100 mM propionic acid, three days after bacterial application (FIG. 11F)) was 1.4±1.4×10^7 CFU/g. Also, the “histological observation (H&E) of inflammatory response in wounds” value with USA300 [1] (topical 100 mM propionic acid, vs PBS-treated wounds) is “less pronounced inflammatory response; also recorded: attenuated inflammatory response”. Besides, the “USA300 colonization / growth in the skin lesions” value in the assay on USA300 [1] (topical 100 mM propionic acid) is recorded as “considerably decreased”. Besides, the “USA300 colonization / growth in the skin lesions” value in the assay with USA300 [1] (topical 100 mM propionic acid, listed as Propionic acid) is recorded as “significantly decreased”. In addition, the “intracellular pH of USA300” value with USA300 [2] is “considerably lowered”. In the assay with C. albicans, the “concentration that completely killed C. albicans” value is given as “greater than or equal to 25 mM” and the “concentration that effectively suppressed the growth of C. albicans” value is listed as “greater than 10 mM”. Besides, in the assay on E. coli, the “concentration that completely killed E. coli” value is recorded as at least 50 mM and the “concentration that effectively suppressed the growth of E. coli” value was “greater than 10 mM”.
